Data published in US9302999B2, “Substituted triazoles as herbicides” (E. I. DU PONT DE NEMOURS AND COMPANY, priority 2012, dated 2016).
Like-named read-outs stand apart in the source and are kept apart here.

How the values were obtained:
Format in all cases: in vivo
[1] = tested on: sedge, umbrella (small-flower umbrella sedge, Cyperus difformis); experiment: Test C flooded paddy test: sedge, umbrella; settings: scale 0 to 100 (0 no effect, 100 complete control); for pest or weed control at 125 g/ha / pest or weed control at 250 g/ha / pest or weed control at 62 g/ha: Cyperus difformis, read-out: Plant response rating, Sedge, Umbrella
Summary of the method: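 Plants at 2-leaf stage in pots flooded 3 cm above soil; compounds applied directly into the paddy water, depth maintained. Visual rating against controls after 13–15 days in greenhouse, scale 0 (no effect) to 100 (complete control).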

[2] = tested on: bluegrass (annual bluegrass, Poa annua); experiment: Test D pre-/postemergence: bluegrass
Text: (§1) Seeds of plant species selected from bluegrass (annual bluegrass, Poa annua), blackgrass (Alopecurus myosuroides), canarygrass (Phalaris minor), chickweed (common chickweed, Stellaria media), galium (catchweed bedstraw, Galium aparine), bromegrass, downy (downy bromegrass, Bromus tectorum), field poppy (Papaver rhoeas), field violet (Viola arvensis), foxtail, green (green foxtail, Setaria viridis), deadnettle (henbit deadnettle, Lamium amplexicaule), ryegrass, Italian (Italian ryegrass, Lolium multiflorum), kochia (Kochia scoparia), lambsquarters (Chenopodium album), oilseed rape (Brassica napus), pigweed (Amaranthus retroflexus), Russian thistle (Salsola iberica), chamomile (scentless chamomile, Matricaria inodora), speedwell (bird's-eye speedwell, Veronica persica), barley, spring (spring barley, Hordeum vulgare), wheat, spring (spring wheat, Triticum aestivum), buckwheat, wild (wild buckwheat, Polygonum convolvulus), mustard, wild (wild mustard, Sinapis arvensis), oat, wild (wild oat, Avena fatua), radish, wild (wild radish, Raphanus raphanistrum), windgrass (Apera spica-venti), barley, winter (winter barley, Hordeum vulgare), and wheat, winter (winter wheat, Triticum aestivum) were planted into a silt loam soil and treated preemergence with test chemicals formulated in a non-phytotoxic solvent mixture which included a surfactant. At the same time, these same crop and weed species were planted in pots containing the planting medium comprising spaghnum peat moss, vermiculite, wetting agent and starter nutrients and treated with postemergence applications of the test chemicals formulated in the same manner. Plants ranged in height from 2 to 18 cm (1- to 4-leaf stage).
(§2) Treated plants and controls were maintained in a controlled growth environment for 14 to 21 days after which time all species were compared to controls and visually evaluated. Plant response ratings, summarized in Table D, are based on a scale of 0 to 100 where 0 is no effect and 100 is complete control. A dash (-) response means no test result.

[3] = tested on: Russian thistle (Salsola iberica); experiment: Test D pre-/postemergence: Russian thistle
Text: as §1, §2

[4] = Flood (flooded paddy test), 125 g ai/ha, visual rating after 13 to 15 days
[5] = Flood (flooded paddy test), 250 g ai/ha, visual rating after 13 to 15 days
[6] = Flood (flooded paddy test), 62 g ai/ha, visual rating after 13 to 15 days
[7] = Postemergence, 31 g ai/ha, scale 0 to 100 (0 no effect, 100 complete control)
[8] = Postemergence, 62 g ai/ha, scale 0 to 100 (0 no effect, 100 complete control)
[9] = Postemergence, 125 g ai/ha, scale 0 to 100, 0 no effect, 100 complete control
[10] = Postemergence, 250 g ai/ha, scale 0 to 100 (0 no effect, 100 complete control)
[11] = Postemergence, 16 g ai/ha, scale 0 to 100
[12] = Preemergence, 31 g ai/ha, scale 0 to 100, 0 no effect, 100 complete control
[13] = Preemergence, 62 g ai/ha, scale 0 to 100
[14] = Preemergence, 125 g ai/ha, scale 0 to 100
[15] = Preemergence, 250 g ai/ha, scale 0 to 100

Row | Compound | pest or weed control at 250 g/ha [1, 5] [%] | pest or weed control at 62 g/ha [1, 6] [%] | Plant response rating: Bluegrass [2, 7] | Plant response rating: Bluegrass [2, 8] | Plant response rating: Bluegrass [2, 9] | Plant response rating: Bluegrass [2, 10] | Plant response rating, Bluegrass [2, 11] | Plant response rating, Bluegrass [2, 12] | Plant response rating, Bluegrass [2, 13] | Plant response rating, Bluegrass [2, 14] | Plant response rating, Bluegrass [2, 15] | Plant response rating: Russian Thistle [3, 7] | Plant response rating: Russian Thistle [3, 8] | Plant response rating: Russian Thistle [3, 9] | Plant response rating: Russian Thistle [3, 10] | Plant response rating, Russian Thistle [3, 11] | Plant response rating, Russian Thistle [3, 12] | Plant response rating, Russian Thistle [3, 13] | Plant response rating, Russian Thistle [3, 14] | Plant response rating, Russian Thistle [3, 15] | other results
1 | COCc1nn(-c2ccc(C(F)(F)F)cc2)nc1Oc1cccc(OC(F)(F)F)c1 [Compound 115, 4-(methoxymethyl)-5-[3-(trifluoromethoxy)phenoxy]-2-[4-(trifluoromethyl)phenyl]-2H-1,2,3-triazole] | 80 |  |  |  |  |  |  |  |  |  |  |  |  |  |  |  |  |  |  |  | pest or weed control at 125 g/ha [1, 4]: 75%; pest or weed control at 62 g/ha ([1]; Flood, 62 g ai/ha): 70%
2 | COc1nn(-c2ccc(C(F)(F)F)cc2)nc1Cc1ccnc(C(F)(F)F)c1 [Compound 15, 4-[[5-methoxy-2-[4-(trifluoromethyl)phenyl]-2H-1,2,3-triazol-4-yl]methyl]-2-(trifluoromethyl)pyridine] | 80 | 75 | 10 | 25 | 50 | 95 | 0 | 0 | 5 | 80 | 100 | 100 | 100 | 100 | 100 | 60 | 0 | 0 | 80 | 80 | 
3 | Cc1nn(-c2ccc(C(F)(F)F)cn2)nc1Cc1cccc(C(F)(F)F)c1 [Compound 106] |  |  | 10 | 10 | 15 | 30 | 10 |  | 0 | 0 | 0 | 25 | 30 | 60 | 100 | 20 | 0 | 0 | 0 | 0 | Plant response rating, Sedge, Umbrella [1, 4]: 75; Plant response rating, Sedge, Umbrella [1, 5]: 80; Plant response rating, Sedge, Umbrella ([1]; Flood, 31 g ai/ha): 50; Plant response rating, Sedge, Umbrella ([1]; Flood, 62 g ai/ha): 50
4 | COc1nn(-c2ccc(C(F)(F)F)cc2)nc1Cc1ccnc(C(F)F)c1 [Compound 138] |  |  | 30 | 50 | 70 | 85 | 20 |  |  |  |  | 75 | 90 | 95 | 100 | 50 |  |  |  |  | 
5 | Cc1nn(-c2ccc(F)c(C(F)(F)F)c2)nc1Cc1ccnc(C(F)(F)F)c1 [Compound 156] |  |  | 65 | 70 | 80 |  | 15 | 5 | 40 | 100 |  | 85 | 90 | 80 |  | 60 |  |  |  |  | Plant response rating, Bluegrass ([2]; Preemergence, 16 g ai/ha, scale 0 to 100, 0 no effect, 100 complete control): 5
6 | FC(F)(F)COc1nn(-c2ccc(C(F)(F)F)cc2)nc1Cc1ccnc(C(F)(F)F)c1 [Compound 14, 4-[[5-(2,2,2-trifluoroethoxy)-2-[4-(trifluoromethyl)phenyl]-2H-1,2,3-triazol-4-yl]methyl]-2-(trifluoromethyl)pyridine] | 75 | 40 | 20 | 35 | 70 | 95 |  | 0 | 30 | 85 | 100 | 0 | 75 | 100 | 100 |  | 0 | 0 | 10 | 40 | 
7 | Cc1nn(-c2ccc(C(F)(F)F)cc2)nc1Oc1csc(C(F)(F)F)c1 [Compound 1, 4-methyl-2-[4-(trifluoromethyl)phenyl]-5-[[5-(trifluoromethyl)-3-thienyl]oxy]-2H-1,2,3-triazole] | 0 | 0 |  |  |  |  |  |  |  |  |  |  |  |  |  |  |  |  |  |  | 
8 | FCc1nn(-c2ccc(C(F)(F)F)cc2)nc1Oc1cccc(OC(F)(F)F)c1 [Compound 116, 4-(fluoromethyl)-5-[3-(trifluoromethoxy)phenoxy]-2-[4-(trifluoromethyl)phenyl]-2H-1,2,3-triazole] | 85 |  |  |  |  |  |  |  |  |  |  |  |  |  |  |  |  |  |  |  | pest or weed control at 125 g/ha [1, 4]: 75%; pest or weed control at 62 g/ha ([1]; Flood, 62 g ai/ha): 60%
